In article PMC6753081 (Nature Communications, 2019):

B1: C. neoformans calcineurin regulatory subunit (CnB), residues 1-175 (natural protein)
chain: MGAAESSMFNSLEKNSNFSGPELMRLKKRFMKLDKDGSGSIDKDEFLQIPQIANNPLAHRMIAIFDEDGSGTVDFQEFVGGLSAFSSKGGRDEKLRFAFKVYDMDRDGYISNGELYLVLKQMVGNNLKDQQLQQIVDKTIMEADKDGDGKLSFEEFTQMVASTDIVKQMTLEDLF
notes: also called calcineurin B

Columns and labels:
FKBP12 (C. albicans) = biological target: T1, FKBP12 (C. albicans) (Candida albicans, UniProt P28870); type: binding; conditions: pH […] °C, […] phosphate, […] NaCl
T1 construct: gene RBP1; E. coli BL21(DE3), N-terminal 6xHis cut by thrombin, 15N/13C labelled, free FKBP12
T1 sequence (P28870 1-124): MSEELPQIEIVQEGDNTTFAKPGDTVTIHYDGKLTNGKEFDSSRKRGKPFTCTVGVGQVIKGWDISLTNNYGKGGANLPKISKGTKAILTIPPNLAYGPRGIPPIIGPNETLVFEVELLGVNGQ

[1] = biological target: T2, A. fumigatus CN/FKBP12 complex (CnA/CnB/AfFKBP12) (Aspergillus fumigatus, UniProt Q4WDF2+Q4WLV6+Q4WUR1); conditions: ternary complex CnA/CnB-FK506-FKBP12; at the FKBP12-BBH/CnB interface, not the phosphatase active site
T2 construct: gene cnaA
T2 sequence (Q4WDF2 entry or part of it): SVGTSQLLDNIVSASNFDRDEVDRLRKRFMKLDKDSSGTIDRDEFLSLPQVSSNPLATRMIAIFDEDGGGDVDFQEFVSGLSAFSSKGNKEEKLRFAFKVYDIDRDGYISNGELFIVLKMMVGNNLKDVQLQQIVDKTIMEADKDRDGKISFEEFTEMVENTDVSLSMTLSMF
T2 sequence (Q4WUR1 2-370): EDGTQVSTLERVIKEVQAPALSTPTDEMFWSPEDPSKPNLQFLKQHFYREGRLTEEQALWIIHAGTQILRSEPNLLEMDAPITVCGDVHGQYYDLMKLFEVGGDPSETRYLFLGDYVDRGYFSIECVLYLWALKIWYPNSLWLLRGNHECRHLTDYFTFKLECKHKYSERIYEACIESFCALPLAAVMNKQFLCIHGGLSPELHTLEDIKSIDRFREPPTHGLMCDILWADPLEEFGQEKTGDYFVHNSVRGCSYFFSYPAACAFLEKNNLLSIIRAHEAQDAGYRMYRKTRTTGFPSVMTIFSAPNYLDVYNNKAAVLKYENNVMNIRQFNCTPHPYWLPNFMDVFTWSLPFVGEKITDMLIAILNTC
T2 sequence (Q4WLV6 2-112): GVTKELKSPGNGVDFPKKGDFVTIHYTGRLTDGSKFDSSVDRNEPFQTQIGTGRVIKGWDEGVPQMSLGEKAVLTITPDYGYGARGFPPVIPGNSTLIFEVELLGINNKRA

[2] = biological target: T3, C. neoformans calcineurin catalytic subunit (CnA), residues 34-402 (C. neoformans, UniProt O42773 34-402); assay: crystal structure; conditions: both partners purified
T3 construct: also called calcineurin A
T3 sequence (O42773 34-402): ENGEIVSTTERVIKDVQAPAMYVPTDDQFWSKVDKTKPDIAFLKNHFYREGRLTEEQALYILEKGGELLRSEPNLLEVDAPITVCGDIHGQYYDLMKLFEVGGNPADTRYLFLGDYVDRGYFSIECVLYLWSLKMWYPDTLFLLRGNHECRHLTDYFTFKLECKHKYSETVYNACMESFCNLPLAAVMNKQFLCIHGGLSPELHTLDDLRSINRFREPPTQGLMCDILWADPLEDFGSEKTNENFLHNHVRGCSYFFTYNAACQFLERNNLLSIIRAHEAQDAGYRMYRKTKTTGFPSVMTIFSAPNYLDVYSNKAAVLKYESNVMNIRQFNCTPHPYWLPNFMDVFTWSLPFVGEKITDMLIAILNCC

Molecule | NMR resonance assignment of apo and FK506-bound state (FKBP12 (C. albicans)) | X-ray crystal structure, 2.50 Å [1] | binding result [2]
C=CC[C@@H]1/C=C(\C)C[C@H](C)C[C@H](OC)[C@H]2O[C@@](O)(C(=O)C(=O)N3CCCC[C@H]3C(=O)O[C@H](/C(C)=C/[C@@H]3CC[C@@H](O)[C@H](OC)C3)[C@H](C)[C@@H](O)CC1=O)[C@H](C)C[C@@H]2OC [FK506] | A. fumigatus and C. albicans were determined in both the apo and FK506 bound states | A single copy of the complex was placed per asymmetric unit (PDB ID: 6TZ7) | 
B1 |  |  | binds
